{"source": "patent US7935688B2", "about": "“Vitamin D-like compound” (Chugai Seiyaku Kabushiki Kaisha, priority 2005, dated 2011)", "key": {"[1]": {"test_system": "osteocalcin production in MG-63 cells", "assay": "Osteocalcin production in MG-63 cells (Gla-type Osteocalcin EIA)", "type": "cell-based, human", "conditions": "(EC50 value of 1,25(OH)2D3/EC50 value of each compound)×100; eight hours exposure, then four days culture", "procedure": "mg-63 was obtained from Institute for Fermentation, Osaka as a human osteoblast-like cell line. MG-63 cells were maintained and cultured in a MEM medium (Minimum essential medium; pH 7.0; Invitrogen Corporation, Carlsbad, Calif., USA) containing 5% fetal bovine serum (FBS; HyClone, Logan, Utah, USA).\nMG-63 cells were adjusted to a density of 4.0×10^4 cells/mL, plated in a 96-well plate at 200 μL per well, and cultured under conditions of 37° C. and 5% carbon dioxide for 24 hours.\nAfter removing the medium, MEM containing 5% charcoal/dextran treated FBS (DCC-FBS; Hyclone, Logan, Utah, USA) was added at 180 μL/well. The test substance (1.0×10^−3 mol/L) was diluted with dimethyl sulfoxide (DMSO) to 1.0×10^−4 mol/L, 1.0×10^−5 mol/L, 1.0×10^−6 mol/L, 1.0×10^−7 mol/L and 1.0×10^−8 mol/L. 1,25(OH)2D3 was used as a positive control. Like the test substance, 1,25(OH)2D3 was diluted with DMSO. 0.02 mL of the positive control and the test substance diluted 100-fold with MEM containing 5% DCC-FCS was added to each well of the 96-well plate, so that the final drug concentration was 1.0×10^−6 mol/L to 1.0×10^−11 mol/L. Thereafter, the cells were cultured under conditions of 37° C. and 5% carbon dioxide for eight hours.\nAfter culturing for eight hours, the medium was removed, and MEM containing 5% DCC-FBS was added at 0.2 mL per well. The cells were cultured under conditions of 37° C. and 5% carbon dioxide for four days, and the medium was recovered. The medium was stored at −80° C. until osteocalcin measurement.\nThe Gla-type Osteocalcin EIA kit (Takara Bio Inc., Tokyo, Japan) was used for measurement of osteocalcin. Measurement was carried out using a microplate reader (Model 3550, Bio-Rad Laboratories, Inc., Hercules, Calif., USA) at a wavelength of 450 nm, and the results were analyzed by Microplate Manager III (Bio-Rad Laboratories, Inc., ver. 1.57).\nThe median effective concentration (EC50) was calculated from the osteocalcin concentration. Potency of induction of each compound was calculated as a ratio of EC50 of 1,25(OH)2D3 to EC50 of the compound. The relation between diseases and induction of osteocalcin production is described in Lancet (1984 May 19), 1 (8386), 1091-3; Steroids 66, 159-170 (2001); and Journal of Steroid Biochemistry & Molecular Biology 89-90, 269-271 (2004), for example.\nThe osteocalcin production level in MG-63 cells (%) was calculated by the formula: (EC50 value of 1,25(OH)2D3/EC50 value of each compound)×100."}, "[2]": {"test_system": "Sprague-Dawley female rats subjected to ovariectomy (OVX)", "assay": "Effect of increasing bone density in ovariectomized rats (dual X-ray bone densitometry)", "type": "in vivo, rat", "conditions": "forcibly orally, five times per week, pathological control group (vehicle) = 100%", "procedure": "The compound of the present invention was adjusted to each concentration using middle chain triglyceride (MCT) as a base. The adjusted solution was stored under shading at 4° C. until use.\nSeven-week-old Sprague-Dawley (Crj:CD(SD)) female rats (Charles River Laboratories Japan, Inc.) were preliminarily bred for one week in an environment at a room temperature of 20 to 26° C., at a humidity of 35 to 75% and with an air change of 10 times or more per hour. The rats were allowed to freely take tap water and CE-2 (CLEA Japan, Inc.) as a feed.\nAfter preliminary breeding, the animals were subjected to ovariectomy (OVX) and divided into groups (eight animals per group) on the day after the operation. Only MCT as a base was forcibly orally administered to the sham operation group (sham) and the pathological control group (OVX-vehicle) at a dose of 1 mL/kg (five times per week). The compound of the present invention was also forcibly orally administered at the same dose five times per week.\nThe animals were bred in a metabolic cage and urine was collected for 24 hours after the final administration. Blood was collected from the abdominal aorta under ether anesthesia for 24 hours after the final administration. The blood was allowed to stand at room temperature for 30 minutes and then centrifuged to provide serum. The femur and lumbar spine were collected and stored in 70% ethanol until bone density measurement.\nThe bone density of the femur and the second to fifth lumbar spines of the isolated lumbar spines was measured by the dual X-ray bone densitometry system DCS-600-EX (ALOKA). The distal femur bone density was measured for three […] regions out of 10 regions of the femur equally divided in length. The bone density in each site was described based on the bone density of the pathological control group (vehicle group) in each experiment as 100%.\nThe effects of the compounds of the present invention on the lumbar spine bone density are shown in Table 2 as an example of the obtained results."}}, "data": [{"compound": "CCC(O)(/C=C/c1ccc(C(CC)(CC)c2ccc(-c3ccc(CC(=O)O)cn3)c(C)c2)cc1C)CC", "note": "[Example 81, [6-(4-{1-ethyl-1-[4-((E)-3-ethyl-3-hydroxy-1-pentenyl)-3-methyl-phenyl]-propyl}-2-methyl-phenyl)-pyridin-3-yl]-acetic Acid]", "values": [{"measurement": "Osteocalcin production level in MG-63 cells (%)", "setting": "[1]", "value": 652, "unit": "%"}, {"measurement": "Lumbar spine bone density (%)", "setting": "[2]; 0.01 μg/kg", "value": 115.66, "unit": "%"}, {"measurement": "Lumbar spine bone density (%)", "setting": "[2]; 0.02 μg/kg", "value": 115.66, "unit": "%"}]}]}
